Measurements taken from patent US7576064B2, “Pyrazole derivative, drug composition containing the same and production intermediate therefor” (Kissei Pharmaceutical Co., Ltd., priority 2003, dated 2009).

Key:
[1] = biological target: T1, human SMINT (Homo sapiens, UniProt Q2M3M2); assay: Confirmatory test for substrate specificity of human SMINT (inhibition of α-MG uptake by natural sugars); type: cell-based; settings: natural sugars added to Uptake Buffer with 1 mM α-MG; COS-7 cells transiently expressing human SMINT
T1 construct: expressed in transfected cells; host or cells: COS-7 cells (RIKEN CELL BANK RCB0539), transient lipofection
T1 sequence (Q2M3M2 1-681): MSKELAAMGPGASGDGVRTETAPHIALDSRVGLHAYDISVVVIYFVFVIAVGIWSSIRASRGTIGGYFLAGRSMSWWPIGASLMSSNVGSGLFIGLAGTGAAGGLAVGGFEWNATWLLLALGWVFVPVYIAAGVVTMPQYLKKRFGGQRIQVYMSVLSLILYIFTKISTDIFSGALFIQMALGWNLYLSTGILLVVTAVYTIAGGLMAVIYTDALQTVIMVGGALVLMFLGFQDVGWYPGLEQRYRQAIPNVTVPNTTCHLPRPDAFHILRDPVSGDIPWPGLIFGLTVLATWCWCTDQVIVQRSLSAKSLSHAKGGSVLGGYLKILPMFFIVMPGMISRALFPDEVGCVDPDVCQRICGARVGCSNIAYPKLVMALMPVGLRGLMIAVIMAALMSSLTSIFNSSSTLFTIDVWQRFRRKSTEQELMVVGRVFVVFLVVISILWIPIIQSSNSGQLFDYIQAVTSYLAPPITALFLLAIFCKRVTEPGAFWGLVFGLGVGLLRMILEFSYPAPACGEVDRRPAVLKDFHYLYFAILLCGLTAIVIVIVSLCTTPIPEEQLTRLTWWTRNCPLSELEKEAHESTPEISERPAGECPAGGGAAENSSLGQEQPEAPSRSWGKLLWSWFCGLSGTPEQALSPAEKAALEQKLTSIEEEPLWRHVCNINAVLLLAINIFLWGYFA
Text: FIG. 2 is a graph showing substrate specificity of human SMINT. The vertical axis in dicates methyl-α-D-glucopyranoside (α-MG) uptake activity (%), and the horizontal axis indicates concentration (mol/L).
1) Preparation of Cells Transiently Expressing Human SMINT
Human SMINT-carrying expression plasmid SMINT/pME18S-FL (denotation of bacteria: Escherichia coli/SMINT2010324), which was deposited with Patent Microorganisms Depositary at the National Institute of Technology and Evaluation under an accession number: FERMP-18756 on Mar. 12, 2002, was transfected to COS-7 cells (RIKEN CELL BANK RCB0539) by lipofection method. LIPOFECTAMINE PLUS reagent (Invitrogen) was used as the lipofection reagent. A day before the lipofection, COS-7 cells were suspended in D-MEM medium (Invitrogen) at 6×10^5 cells per 1 mL, and 50 μL of the suspended cells was dispensed into each well of 96-well plate. The lipofection was performed by the following methods. For each well, 0.1 μg of the plasmid was diluted with 10 μL of D-MEM, added 0.5 μL of PLUS reagent, mixed gently, and kept stand for 15 minutes to prepare Plasmid Dilute Solution. For each well, 0.5 μL of LIPOFECTAMINE reagent was diluted with 10 μL of D-MEM to prepare LIPOFECTAMINE Dilute Solution. […]
To Uptake Buffer consisting of 140 mM sodium chloride, 2 mM potassium chloride, 1 mM calcium chloride, 1 mM magnesium chloride, 10 mM 2-[2-(2-hydroxyethyl)-1-piperazinyl]-ethanesulfonic acid, and 5 mM tris(hydroxymethyl)aminomethane (pH 7.4), was added methyl-α-D-glucopyranoside (α-MG) composed of its non-radiolabeled form (Sigma) and ^14C-labeled form (Amersham Biosciences) at 1 mM as the final concentration. […] To the cell lysates were added 150 μL per well of MicroScint 40 (Packard), mixed well, and the radio activity was measured in a micro scintillation counter TOPCOUNT (Packard). α-MG uptake by the cells treated with each concentration of test compounds was calculated as relative activity to control group, which is set as 100% uptake after deducting the basal uptake. […]

[2] = biological target: T1, human SMINT; assay: Confirmatory test for inhibitory activity on human SMINT (methyl-α-D-glucopyranoside uptake in transiently expressing COS-7 cells); type: cell-based; settings: COS-7 cells transiently expressing human SMINT; 1 mM α-MG; 1 hour, 37° C.; read-out: IC50 value (concentration inhibiting α-MG uptake by 50%)
Text: Human SMINT-carrying expression plasmid SMINT/pME18S-FL (denotation of bacteria: Escherichia coli/SMINT2010324), which was deposited with Patent Microorganisms Depositary at the National Institute of Technology and Evaluation under an accession number: FERMP-18756 on Mar. 12, 2002, was transfected to COS-7 cells (RIKEN CELL BANK RCB0539) by lipofection method. LIPOFECTAMINE PLUS reagent (Invitrogen) was used as the lipofection reagent. A day before the lipofection, COS-7 cells were suspended in D-MEM medium (Invitrogen) at 6×10^5 cells per 1 mL, and 50 μL of the suspended cells was dispensed into each well of 96-well plate. The lipofection was performed by the following methods. For each well, 0.1 μg of the plasmid was diluted with 10 μL of D-MEM, added 0.5 μL of PLUS reagent, mixed gently, and kept stand for 15 minutes to prepare Plasmid Dilute Solution. For each well, 0.5 μL of LIPOFECTAMINE reagent was diluted with 10 μL of D-MEM to prepare LIPOFECTAMINE Dilute Solution. The Plasmid Dilute Solution was mixed with an equal volume of the LIPOFECTAMINE Dilute Solution, kept stand for 15 minutes. After that, 20 μL of the mixture was added to each well of cell culture medium, and the cells were cultured for 5 hours at 37° C. under 5% CO2. Then 100 μL of D-MEM containing 16.7% fetal bovine serum (Sanko Jun-yaku) was added to each well. […]

## OC[C@H]1OC[C@H](O)[C@@H](O)[C@@H]1O [1,5-anhydroglucitol]
[1]
  recognition as substrate by SMINT (FIG. 2): recognizes

## COc1ccc(Cc2c(O[C@@H]3O[C@H](CO)[C@@H](O)[C@H](O)[C@H]3O)nn(C(C)C)c2Oc2ccccc2)cc1 [Example 1, 1-Isopropyl-4-(4-methoxybenzyl)-5-phenoxy-3-(β-D-glucopyranosyloxy)-1H-pyrazole]
[2]
  IC50: 700 nM

## COc1ccc(Cc2c(O[C@@H]3O[C@H](CO)[C@@H](O)[C@H](O)[C@H]3O)nn(C(C)C)c2-n2cccn2)c(OC)c1 [Example 4, 1-Isopropyl-4-(2,4-dimethoxyphenylmethyl)-5-(1H-pyrazol-1-yl)-3-(β-D-glucopyranosyloxy)-1H-pyrazole]
[2]
  IC50: 890 nM

## O=C(CO)[C@@H](O)[C@H](O)[C@H](O)CO [fructose]
[1]
  recognition as substrate by SMINT (FIG. 2): recognizes

## O=C[C@H](O)[C@@H](O)[C@@H](O)[C@H](O)CO [galactose]
[1]
  recognition as substrate by SMINT (FIG. 2): not
